The text below walks through data of patent publication US9096539B2, “Substituted 4,5-dihydro-2H-benzo[e]indazole-9-carboxylates for the treatment of diabetes and related disorders” (Council of Scientific & Industrial Research, priority 2012, dated 2015).

For orientation: melting point means the temperature, or range, at which the solid turns liquid. Broadly, the inhibition is the share of the control response that was lost under treatment.

The target of data set [1] is T1, human recombinant PTP1B enzyme (Homo sapiens, UniProt P18031).
T1 construct: purchased Enzo Life Sciences, USA BML-AK 822
T1 sequence (P18031 1-322 limits assumed): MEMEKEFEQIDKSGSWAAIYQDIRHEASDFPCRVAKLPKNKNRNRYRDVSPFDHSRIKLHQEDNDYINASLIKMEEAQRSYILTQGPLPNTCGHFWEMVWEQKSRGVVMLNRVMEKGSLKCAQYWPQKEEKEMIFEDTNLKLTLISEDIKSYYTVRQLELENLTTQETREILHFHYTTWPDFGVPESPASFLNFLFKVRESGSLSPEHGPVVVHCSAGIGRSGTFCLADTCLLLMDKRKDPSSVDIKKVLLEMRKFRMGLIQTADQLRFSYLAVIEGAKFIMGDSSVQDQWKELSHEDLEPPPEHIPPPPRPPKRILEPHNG
In words: Protein tyrosine phosphatase-1B assay (colorimetric kit BML-AK 822). The class given is biochemical. The settings on record: read-out: % Inhibition (PTP-1B). As for the experimental part:
Assay was done according to the Kit manufacturers protocol, in brief the reaction was carried out in 96 well flat bottomed microtiter plate by the addition of assay buffer, solution of test compounds and diluted PTP1B enzyme. Enzyme reaction was initiated by addition of 50 μl of warmed 2× substrate then incubated the plate at 30° C. for 30 min. After incubation for 30 min. Reaction was terminated by addition of 25 μl of biomol red reagent and mixed thoroughly by repeated pipetting. […] Volumes and dilution of other component were accordingly as instructed in the manual provided in the kit. PTP1B phosphatase acting on the phosphopeptide substrate and release phosphate. The detection of free phosphate released is based on classic Malachite green assay. After adding biomol red to reaction wells after 30 minutes of incubation as described earlier the plate was incubated for another 20 min to develop the colour. Absorbance was recorded at 620 nm. on a microplate reader.

Setting [2] is: Table 5, evaluated at 10 μM concentration.

The structures appear in SMILES notation. Like-named read-outs stand apart in the source and are kept apart here.

`COC(=O)c1c(SC)cc(-c2ccccc2)c2c1-c1cn(-c3ccccc3)nc1CC2` [compound 4, methyl 8-(methylthio)-2,6-diphenyl-4,5-dihydro-2H-benzo[e]indazole-9-carboxylate] yielded a melting point of 173 to 175 °C. Moreover, the inhibition at 10 µM in data set [1] (setting [2]) was found to be 16.4%.

In the case of `COC(=O)c1c(SC)cc(-c2cccs2)c2c1-c1cn(-c3ccccc3)nc1CC2` [compound 7, methyl 8-(methylthio)-2-phenyl-6-(thiophen-2-yl)-4,5-dihydro-2H-benzo[e]indazole-9-carboxylate], the melting point lay in the range of 174 to 176 °C. Further, the inhibition at 10 µM in data set [1] (setting [2]) came out at 12.7%.

On to `COC(=O)c1c(SC)cc(-c2ccc(F)cc2)c2c1-c1cn(-c3ccccc3)nc1CC2` [compound 8, methyl 6-(4-fluorophenyl)-8-(methylthio)-2-phenyl-4,5-dihydro-2H-benzo[e]indazole-9-carboxylate], for which the melting point lay in the range of 182 to 184 °C. Further, the inhibition at 10 µM in data set [1] (setting [2]) worked out at 14.6%.

On to `COC(=O)c1c(SC)cc(-c2ccc3ccc4cccc5ccc2c3c45)c2c1-c1cn(-c3ccccc3)nc1CC2` [compound 9, methyl 8-(methylthio)-2-phenyl-6-(pyren-1-yl)-4,5-dihydro-2H-benzo[e]indazole-9-carboxylate], for which the melting point was in the range of 174 to 176 °C. For the same compound, in data set [1], the inhibition at 10 µM amounted to 10.7%.

Consider `COC(=O)c1c(S(C)(=O)=O)cc(-c2ccc(F)cc2)c2c1-c1cn(-c3ccccc3)nc1CC2` [compound 10, methyl 6-(4-fluorophenyl)-8-(methylsulfonyl)-2-phenyl-4,5-dihydro-2H-benzo[e]indazole-9-carboxylate], for which the melting point was 245 to 247 °C. Besides, the inhibition at 10 µM in data set [1] (setting [2]) stood at 1.52%.

`COC(=O)c1c(S(C)(=O)=O)cc(-c2cccc3ccccc23)c2c1-c1cn(-c3ccccc3)nc1CC2` [compound 11, methyl 8-(methylsulfonyl)-6-(naphthalen-1-yl)-2-phenyl-4,5-dihydro-2H-benzo[e]indazole-9-carboxylate] came in with a melting point of 204 to 206 °C. Further, in data set [1] (setting [2]), the inhibition at 10 µM is 18.8%.

Turning to `COC(=O)c1c(S(C)(=O)=O)cc(-c2ccc(C)cc2)c2c1-c1cn(-c3ccccc3)nc1CC2` [compound 12, methyl 8-(methylsulfonyl)-2-phenyl-6-(p-tolyl)-4,5-dihydro-2H-benzo[e]indazole-9-carboxylate], the melting point lay within 228 to 230 °C. Further, the inhibition at 10 µM in data set [1] (setting [2]) worked out at 26.4%.
